Test results as given in patent US9321718B2 (CHROMA THERAPEUTICS LTD., priority 2010, dated 2016).

molecular target: T1, human recombinant his-tagged HSP90α (Homo sapiens, UniProt P07900); assay: HSP90 enzyme assay (HTRF, competition with biotinylated Geldanamycin); assay type: binding; settings: IC50 range; read-out: Enzyme Assay
T1 construct: purchased Prospec Technogene #HSP90
Source text: An HTRF (homogeneous time resolved fluorescence) assay is used to measure the interaction of the compounds with HSP90. The assay measures binding of biotinylated Geldanamycin (bio-GM; Biomol, #EI-341, lot: A9199a) to human recombinant his-tagged HSP90α (HSP90; Prospec Technogene, #HSP90, lot: 260HSP9001). A signal is generated by fluorescence resonance energy transfer from an Europium-cryptate labeled anti-his antibody (anti-his-K; Cisbio International, #61HISKLA, lot: 33V) via the HSP90-GM-biotin complex to a fluorescence acceptor (allophycocyanin) linked to streptavidin (SA-XL; Cisbio International, #610SAXLB, lot: 089).
Unlabeled GM or compounds compete with the bio-GM for binding to HSP90 resulting in reduced fluorescence energy transfer/assay signal.
A preformed (1 hour incubation) complex of HSP90 with the anti-his-K is added to the compound solution in a 384 well microplate (Corning, #3710) and incubated for 15 minutes. A preformed (1 hour incubation) complex of bio-GM with the SA-XL is added to the wells and incubated for 20 hours. All incubations are performed at room temperature. The final assay volume is 50 μl/well. The final concentrations in the assay are: 50 mM Hepes pH 7.3, 50 mM NaCl, 100 mM KF, 1 mM EDTA, 1 mM DTT, 0.1% Triton-X-100, […] HSP90, 40 nM SA-XL, 40 nM bio-GM. Test compounds are dissolved in DMSO, prediluted in assay buffer and tested at a final concentration between 5000 nM and 0.3 nM. The resulting DMSO concentration is 0.5% and included in all controls. High controls are without test compounds, low controls without test compounds, without HSP90 and without bio-GM. As a reference inhibitor unlabeled GM is used in the same concentrations as the test compounds.
Inhibition is calculated compared to the assay controls using an Excel spreadsheet (Microsoft). IC50 values are calculated by non-linear least squares fitting to the standard dose-response model using GraphPad Prism (GraphPad Software Inc).

First: CC(C)C[C@H](NC1CCN(C(=O)c2cc(C(C)C)c(O)cc2O)CC1)C(=O)OC(C)(C)C [Example 6, tert-butyl N-(1-{[2,4-dihydroxy-5-(propan-2-yl)phenyl]carbonyl}piperidin-4-yl)-L-leucinate]
Second: CC(C)C[C@H](NC1CCCN(C(=O)c2cc(C(C)C)c(O)cc2O)C1)C(=O)OC1CCCC1 (stereo partly drawn) [Example 7, cyclopentyl N-(1-{[2,4-dihydroxy-5-(propan-2-yl)phenyl]carbonyl}piperidin-3-yl)-L-leucinate]
The IC50 of the first is lower: under 100 nM for the first, 100 to 1000 nM for the second.

`CC(C)c1cc(C(=O)N2CCC(N[C@H](C(=O)O)C(C)C)CC2)c(O)cc1O` [Example 98, N-(1-{[2,4-dihydroxy-5-(propan-2-yl)phenyl]carbonyl}piperidin-4-yl)-L-valine] and `CC(C)c1cc(C(=O)N2CCC(N[C@H](C(=O)O)c3ccccc3)CC2)c(O)cc1O` [Example 99, (2S)-[(1-{[2,4-dihydroxy-5-(propan-2-yl)phenyl]carbonyl}piperidin-4-yl)amino](phenyl)ethanoic acid] cannot be ordered by IC50: under 100 nM for the first, under 100 nM for the second.

`CC(C)c1cc(C(=O)N2CCC(N[C@@H](C)C(=O)O)CC2)c(O)cc1O` [Example 100, N-(1-{[2,4-dihydroxy-5-(propan-2-yl)phenyl]carbonyl}piperidin-4-yl)-L-alanine] and `CC(C)c1cc(C(=O)N2CCC(N[C@@H](Cc3ccccc3)C(=O)O)CC2)c(O)cc1O` [Example 101, N-(1-{[2,4-dihydroxy-5-(propan-2-yl)phenyl]carbonyl}piperidin-4-yl)-L-phenylalanine] cannot be ordered by IC50: under 100 nM for the first, under 100 nM for the second.

Compared with `CC(C)C[C@H](NC1CCCN(C(=O)c2cc(C(C)C)c(O)cc2O)C1)C(=O)O` (stereo partly drawn) [Example 102, N-(1-{[2,4-dihydroxy-5-(propan-2-yl)phenyl]carbonyl}piperidin-3-yl)-L-leucine], `CC(C)C[C@H](NCC1CCN(C(=O)c2cc(C(C)C)c(O)cc2O)CC1)C(=O)O` [Example 103, N-[(1-{[2,4-dihydroxy-5-(propan-2-yl)phenyl]carbonyl}piperidin-4-yl)methyl]-L-leucine] is lower in IC50: 100 to 1000 nM for the first, under 100 nM for the second. The second is the more potent here.

`CC(C)C[C@H](NCCC1CCN(C(=O)c2cc(C(C)C)c(O)cc2O)CC1)C(=O)O` [Example 104, N-[2-(1-{[2,4-dihydroxy-5-(propan-2-yl)phenyl]carbonyl}piperidin-4-yl)ethyl]-L-leucine] and `CCCC[C@H](NC1CCN(C(=O)c2cc(C(C)C)c(O)cc2O)CC1)C(=O)O` [Example 105, N-(1-{[2,4-dihydroxy-5-(propan-2-yl)phenyl]carbonyl}piperidin-4-yl)-L-norleucine] cannot be ordered by IC50: under 100 nM for the first, under 100 nM for the second.

`CC(C)c1cc(C(=O)N2CCC(CN[C@@H](C)C(=O)O)CC2)c(O)cc1O` [Example 106, N-[(1-{[2,4-dihydroxy-5-(propan-2-yl)phenyl]carbonyl}piperidin-4-yl)methyl]-L-alanine] and `CC(C)c1cc(C(=O)N2CCC(CN[C@@H](Cc3ccccc3)C(=O)O)CC2)c(O)cc1O` [Example 107, N-[(1-{[2,4-dihydroxy-5-(propan-2-yl)phenyl]carbonyl}piperidin-4-yl)methyl]-L-phenylalanine] cannot be ordered by IC50: under 100 nM for the first, under 100 nM for the second.

Going from `CC(C)C[C@@H](NCC1CCN(C(=O)c2cc(C(C)C)c(O)cc2O)CC1)C(=O)O` [Example 108, N-[(1-{[2,4-dihydroxy-5-(propan-2-yl)phenyl]carbonyl}piperidin-4-yl)methyl]-D-leucine] to `CC(C)C[C@@H](NC1CCN(C(=O)c2cc(C(C)C)c(O)cc2O)CC1)C(=O)O` [Example 109, N-(1-{[2,4-dihydroxy-5-(propan-2-yl)phenyl]carbonyl}piperidin-4-yl)-D-leucine], the IC50 rises from under 100 nM to over 1000 nM. The first is the more potent here.

`CC(C)c1cc(C(=O)N2CCC(N[C@@H](CC3CCCCC3)C(=O)O)CC2)c(O)cc1O` [Example 110, 3-cyclohexyl-N-(1-{[2,4-dihydroxy-5-(propan-2-yl)phenyl]carbonyl}piperidin-4-yl)-L-alanine] and `CC(C)c1cc(C(=O)N2CCC(CCN[C@@H](Cc3ccccc3)C(=O)O)CC2)c(O)cc1O` [Example 111, N-[2-(1-{[2,4-dihydroxy-5-(propan-2-yl)phenyl]carbonyl}piperidin-4-yl)ethyl]-L-phenylalanine] cannot be ordered by IC50: under 100 nM for the first, under 100 nM for the second.

`CC(C)c1cc(C(=O)N2CCC(CN[C@H](C(=O)O)C(C)C)CC2)c(O)cc1O` [Example 112, N-[(1-{[2,4-dihydroxy-5-(propan-2-yl)phenyl]carbonyl}piperidin-4-yl)methyl]-L-valine] and `CC(C)c1cc(C(=O)N2CCC(N[C@H](C(=O)O)C3CCCCC3)CC2)c(O)cc1O` [Example 113] cannot be ordered by IC50: under 100 nM for the first, under 100 nM for the second.

`CC(C)c1cc(C(=O)N2CCC(CCN[C@@H](COC(C)(C)C)C(=O)O)CC2)c(O)cc1O` [Example 115, O-tert-butyl-N-[2-(1-{[2,4-dihydroxy-5-(propan-2-yl)phenyl]carbonyl}piperidin-4-yl)ethyl]-L-serine] and `CC(C)c1cc(C(=O)N2CCC(CN[C@H](C(=O)O)C3CCCCC3)CC2)c(O)cc1O` [Example 116, (2S)-cyclohexyl{[(1-{[2,4-dihydroxy-5-(propan-2-yl)phenyl]carbonyl}piperidin-4-yl)methyl]amino}ethanoic acid] cannot be ordered by IC50: under 100 nM for the first, under 100 nM for the second.

`CC(C)c1cc(C(=O)N2CCC(CNC(C)(C)C(=O)O)CC2)c(O)cc1O` [Example 117, N-[(1-{[2,4-dihydroxy-5-(propan-2-yl)phenyl]carbonyl}piperidin-4-yl)methyl]-2-methylalanine] and `CC(C)c1cc(C(=O)N2CCC(CN[C@@H](CO)C(=O)O)CC2)c(O)cc1O` [Example 118, N-[(1-{[2,4-dihydroxy-5-(propan-2-yl)phenyl]carbonyl}piperidin-4-yl)methyl]-L-serine] cannot be ordered by IC50: under 100 nM for the first, under 100 nM for the second.

`CC(C)c1cc(C(=O)N2CCC(CN[C@@H](COC(C)(C)C)C(=O)O)CC2)c(O)cc1O` [Example 119] and `CC(C)c1cc(C(=O)N2CCC(CN[C@H](C(=O)O)c3ccccc3)CC2)c(O)cc1O` [Example 120, (2S)-{[(1-{[2,4-dihydroxy-5-(propan-2-yl)phenyl]carbonyl}piperidin-4-yl)methyl]amino}(phenyl)ethanoic acid] cannot be ordered by IC50: under 100 nM for the first, under 100 nM for the second.

`CC(C)c1cc(C(=O)N2CCC(CCN[C@H](C(=O)O)C(C)C)CC2)c(O)cc1O` [Example 121, N-[2-(1-{[2,4-dihydroxy-5-(propan-2-yl)phenyl]carbonyl}piperidin-4-yl)ethyl]-L-valine] and `CC(C)c1cc(C(=O)N2CCC(N[C@@H](COC(C)(C)C)C(=O)O)CC2)c(O)cc1O` [Example 122, O-tert-butyl-N-(1-{[2,4-dihydroxy-5-(propan-2-yl)phenyl]carbonyl}piperidin-4-yl)-L-serine] cannot be ordered by IC50: under 100 nM for the first, under 100 nM for the second.

`CC(C)c1cc(C(=O)N2CCC(CCN[C@H](C(=O)O)C3CCCCC3)CC2)c(O)cc1O` [Example 123, (2S)-cyclohexyl{[2-(1-{[2,4-dihydroxy-5-(propan-2-yl)phenyl]carbonyl}piperidin-4-yl)ethyl]amino}ethanoic acid] and `CC(C)c1cc(C(=O)N2CCC(CCN[C@H](C(=O)O)c3ccccc3)CC2)c(O)cc1O` [Example 124, (2S)-{[2-(1-{[2,4-dihydroxy-5-(propan-2-yl)phenyl]carbonyl}piperidin-4-yl)ethyl]amino}(phenyl)ethanoic acid] cannot be ordered by IC50: under 100 nM for the first, under 100 nM for the second.

`CC(C)c1cc(C(=O)N2CCC(N[C@@H](CO)C(=O)O)CC2)c(O)cc1O` [Example 125, N-(1-{[2,4-dihydroxy-5-(propan-2-yl)phenyl]carbonyl}piperidin-4-yl)-L-serine] and “N-[2-(1-{[2,4-dihydroxy-5-(propan-2-yl)phenyl]carbonyl}piperidin-4-yl)ethyl]-2-methylalanine [Example 114]” cannot be ordered by IC50: under 100 nM for the first, under 100 nM for the second.

“N-{3-[(1-{[2,4-dihydroxy-5-(propan-2-yl)phenyl]carbonyl}piperidin-4-yl)amino]propyl}-L-leucine [Example 127]” and “tert-butyl N-[2-(1-{[2,4-dihydroxy-5-(propan-2-yl)phenyl]carbonyl}piperidin-4-yl)ethyl]-L-serinate [Example 52]” cannot be ordered by IC50: under 100 nM for the first, under 100 nM for the second.

same assay, conditions: in words, relative to non-ester parent CHR-7310

For `CC(C)c1cc(C(=O)N2CCC(N[C@@H](COC(C)(C)C)C(=O)O)CC2)c(O)cc1O` [Example 122, O-tert-butyl-N-(1-{[2,4-dihydroxy-5-(propan-2-yl)phenyl]carbonyl}piperidin-4-yl)-L-serine], the “IC50 in the Hsp90 binding assay compared with CHR-7310” value was “similar”.

test system: TNFα release from LPS stimulated THP-1 (hCE-1 +ve) cells; assay: LPS-stimulation of THP-1 cells (TNF-α release); assay type: cell-based, human; settings: Homo sapiens, THP-1; IC50 range; TNF-α after LPS 1 μg/ml, 6 hours; read-out: THP-1 Assay
Description: THP-1 cells are plated in […] at a density of 4×10^4 cells/well in V-bottomed 96 well tissue culture treated plates and incubated at 37° C. in 5% CO2 for 16 hours. 2 Hours after the addition of the inhibitor in 100 μl of tissue culture media, the cells are stimulated with LPS (E. Coli strain 005:B5, Sigma) at a final concentration of 1 μg/ml and incubated at 37° C. in 5% CO2 for 6 hours. TNF-α levels are measured from cell-free supernatants by sandwich ELISA (R&D Systems #QTA00B).

`CC(C)C[C@H](NC1CCN(C(=O)c2cc(C(C)C)c(O)cc2O)CC1)C(=O)OC(C)(C)C` [Example 6, tert-butyl N-(1-{[2,4-dihydroxy-5-(propan-2-yl)phenyl]carbonyl}piperidin-4-yl)-L-leucinate] and `CC(C)C[C@H](NC1CCCN(C(=O)c2cc(C(C)C)c(O)cc2O)C1)C(=O)OC1CCCC1` (stereo partly drawn) [Example 7, cyclopentyl N-(1-{[2,4-dihydroxy-5-(propan-2-yl)phenyl]carbonyl}piperidin-3-yl)-L-leucinate] cannot be ordered by IC50: over 1000 nM for the first, over 1000 nM for the second.
